Laboratory results published in patent US20040029908A1, “Tricyclo compounds, a process for their production and a pharmaceutical composition containing the same” (FUJISAWA PHARMACEUTICAL CO., LTD., priority 1984, published 2004).
Values after ≈ are worked out from the molar mass of the structure shown.

Assays:
[1] = tested on: mouse MLR (C57BL/6 responder cells, mitomycin C treated BALB/C stimulator cells); experiment: Suppression of in vitro Mixed Lymphocyte Reaction (MLR), 3H-thymidine uptake; type: cell-based; conditions: for IC50: Lymphocyte, mouse MLR, 68 hours, 3H-thymidine
Description: The MLR test was performed in microtiter plates, with each well containing 5 ×10^5 C57BL/6 responder cells (H-2^b ), 5 ×10^5 mitomycin C treated (25μg/ml mitomycin C at 37° C. for 30 minutes and washed three times with RPMI 1640 medium) BALB/C stimulator cells (H-2^d) in 0.2 ml RPMI 1640 medium supplemented with 10% fetal calf serum, 2mM sodium hydrogen carbonate, penicillin (50 unit/ml) and streptomycin (50 μg/ml) . The cells were incubated at 37 ° C. in humidified atmosphere of 5% carbon dioxide and 95% of air for 68 hours and pulsed with ^3H-thymidine (0.5 μCi) 4 hours before the cells were collected. The object compound of this invention was dissolved in ethanol and further diluted in RPMI 1640 medium and added to the cultures to give final concentrations of 0.1 μg/ml or less.

[2] = tested on: Aspergillus fumigatus IFO 5840; experiment: Antimicrobial activity, serial agar dilution method in Sabouraud agar; type: cell-based; conditions: IFO5840, 30° C., 24 hours
Description: (§1) Antimicrobial activities of the tricyclo compounds (I) against various fungi were determined by a serial agar dilution method in a Sabouraud agar. Minimum inhibitory concentrations (MIC) were expressed in terms of μg/ml after incubation at 30° C. for 24 hours.

[3] = tested on: Fusarium oxysporum; experiment: as above; type: cell-based; conditions: 30° C., 24 hours
Description: as §1

[4] = tested on: ddY mice; experiment: Acute toxicities in ddY mice by intraperitoneal injection; type: in vivo
[5] = Solubility (physical and chemical properties); type: physicochemical
[6] = ddY mice, intraperitoneal injection
[7] = hexane (n-hexane), petroleum ether
[8] = methanol, ethanol, acetone, ethyl acetate, chloroform, diethyl ether and benzene

Row | Structure (SMILES) | Radioactivities (mean C.P.M. ± S.E.) ([1]; 10 ng/ml) [C.P.M.] | Suppression (%) ([1]; 10 ng/ml) | Radioactivities (mean C.P.M. ± S.E.) ([1]; 100 ng/ml) [C.P.M.] | Suppression (%) ([1]; 100 ng/ml) | IC50 [1] [µg/mL] | MIC [2] [µg/mL] | the dead at dose of 100 mg/kg [4, 6] | Solubility [5, 7] | Solubility [5, 8] | Solubility ([5]; water) | Radioactivities (mean C.P.M. ± S.E.) ([1]; 0.25 ng/ml) [C.P.M.] | Suppression (%) ([1]; 0.25 ng/ml) | Radioactivities (mean C.P.M. ± S.E.) ([1]; 0.500 ng/ml) [C.P.M.] | Suppression (%) ([1]; 0.500 ng/ml) | Radioactivities (mean C.P.M. ± S.E.) ([1]; 1 ng/ml) [C.P.M.] | Suppression (%) ([1]; 1 ng/ml) | further results
1 | C=CC[C@@H]1/C=C(\C)C[C@H](C)C[C@H](OC)[C@H]2O[C@@](O)(C(=O)C(=O)N3CCC[C@H]3C(=O)O[C@H](/C(C)=C/[C@@H]3CC[C@@H](O)[C@H](OC)C3)[C@H](C)[C@@H](O)CC1=O)[C@H](C)C[C@@H]2OC [FR-900525] | 372 ± 32 | 97.6 | 469 ± 56 | 97.0 | 0.00155 (≈ 0.00196 µM) | 0.5 (≈ 0.633 µM) | could not be observed | Sparingly Soluble | Soluble | Insoluble |  |  |  |  |  |  | Radioactivities (mean C.P.M. ± S.E.) ([1]; 1.2 ng/ml): 10103 ± 421 C.P.M.; Suppression (%) ([1]; 1.2 ng/ml): 35.8%; Radioactivities (mean C.P.M. ± S.E.) ([1]; 2.5 ng/ml): 3564 ± 512 C.P.M.; Suppression (%) ([1]; 2.5 ng/ml): 77.4%; Radioactivities (mean C.P.M. ± S.E.) ([1]; 5 ng/ml): 828 ± 369 C.P.M.; Suppression (%) ([1]; 5 ng/ml): 94.7%; MIC [3]: 1 µg/mL (≈ 1.27 µM)
2 | CO[C@H]1C[C@@H](C)C/C(C)=C/[C@@H](C)C(=O)C[C@H](O)[C@@H](C)[C@@H](/C(C)=C/[C@@H]2CC[C@@H](O)[C@H](OC)C2)OC(=O)[C@@H]2CCCCN2C(=O)C(=O)[C@]2(O)O[C@H]1[C@@H](OC)C[C@H]2C [FR-900523] | 156 ± 37 | 99.3 | 25 ± 12 | 99.9 | 0.0005 (≈ 0.000643 µM) | 0.3 (≈ 0.386 µM) | could not be observed | Sparingly Soluble | Soluble | Insoluble | 17721 ± 1083 | 23.3 | 11624 ± 395 | 49.7 | 5600 ± 399 | 75.8 | 
3 | CCC1/C=C(\C)CC(C)CC(OC)C2OC(O)(C(=O)C(=O)N3CCCCC3C(=O)OC(/C(C)=C/C3CCC(O)C(OC)C3)C(C)C(O)CC1=O)C(C)CC2OC (stereo not shown) [FR-900520, 17-Ethyl-1,14-dihydroxy-12-[2-(4-hydroxy-3-methoxycyclohexyl)-1-methylvinyl)-23,25-dimethoxy-13,19,21,27-tetramethyl-11,28-dioxa-4-azatricyclo-[^22.3.1.0^4,^9) octacos-18-ene-2,3,10,16-tetraone] | 515 ± 55 | 97.8 | 175 ± 16 | 99.2 | 0.00038 (≈ 0.00048 µM) | 0.1 (≈ 0.126 µM) |  | Sparingly Soluble | Soluble | Insoluble | 14987 ± 1786 | 35.1 | 9434 ± 1546 | 59.2 | 2744 ± 527 | 88.1 | the dead at dose of 100 mg/kg ([4]; mouse, in vivo, ip): could not be observed
